Earlier results, collected in patent publication US12441685B2, “Compounds and methods for treating cancer” (DANA-FARBER CANCER INSTITUTE, INC., priority 2015, dated 2025).

Conditions: Phase II study, patients with NBCCS (Tang et al., 2012)

CS(=O)(=O)c1ccc(C(=O)Nc2ccc(Cl)c(-c3ccccn3)c2)c(Cl)c1 [vismodegib]
participants who ceased treatment due to serious adverse effects: 14 of 26
